Measured values from patent publication US20140121373A1, “PROCESS FOR PREPARING STABLE POLYMORPHIC FORM OF ERLOTINIB HYDROCHLORIDE” (CADILA HEALTHCARE LIMITED, priority 2011, published 2014).

Assay: Polymorphic stability study of the stable form of Erlotinib hydrochloride (PXRD, DSC, IR on storage)
Assay type: physicochemical
Conditions: for DSC / IR / PXRD: should comply with data of stable polymorphic form
Experimental: (Refrigerator), 25° C.±2° C./60%±5% RH, 30° C.±2° C./65%±5% RH (Real Time) and 40° C.±2° C./75%±5% RH of the stable form of Erlotinib Hydrochloride.
• Powder X-ray Diffraction: X-ray powder diffraction spectrum was observed on a MF 2100 2 KW X-ray Powder diffractometer of make Rigaku having a Copper Kα-radiation at a voltage of 40 kV and 30 mA. Approximately 150 mg sample was gently flattened on a quartz plate without further processing (e.g. Grinding and sieving) and scanned from 4° to 40° at 0.010° sampling width and 4.000° per minute. • IR Spectroscopy: The IR spectra was performed on 8400S of make Shimadzu by using KBr pellet and recorded from 4000 to 400 cm^−1. About 2 mg of sample was triturated with 300 mg of finely powdered and dried potassium bromide. The mixture was carefully grinded, spread uniformly in a suitable die and submitted it in vacuum to a pressure of about 800 MPa […]. From the FTIR spectrum a blank FT-IR spectrum of KBr was subtracted. The blank IR spectrum was recorded prior to the measurement of the samples.
Differential Scanning Calorimetry (DSC): Melting points are determined by means of a DSC thermogram using a Pyris-1 make Perkin Elmer. DSC (Differential Scanning Calorimetry) is the technique of dynamic differential Calorimetry. Using this technique, the melting temperature can be measured by heating the sample until a thermal, i.e. an endothermic or exothermic, reaction is detected by means of ultrasensitive sensors. The DSC cell/sample chamber was purged with 100 ml/min of ultra-high purity nitrogen. The instrument was calibrated with high purity Indium. The sample was placed into an open aluminum DSC pan and measured against an empty reference pan. About 2 mg of sample being placed into the bottom of the pan and lightly tapped down to ensure good contact with the pan. The instrument was programmed to heat at a heating rate of 10° C./min in the temperature range between 50° C. and 300° C. • Microscope: A Lieca Microscope with Linkam Hot stage microscopy (TMS-94) system with polarized light, CCD camera and Linksys 32 data software. • HPLC: High Performance Liquid Chromatography Separation Module with PDA detector, Make Waters, Model No 2695. • KF: Moisture content was analyzed by using Karl Fisher Autotitrator 795 KFT Titrino make Metrohm.

[1] = 5° C. ± 3° C. (Refrigerator), Month 1
[2] = 5° C. ± 3° C. (Refrigerator), Month 2
[3] = 5° C. ± 3° C. (Refrigerator), Month 3
[4] = 5° C. ± 3° C. (Refrigerator), Month 6
[5] = 25° C. ± 2° C./60% ±5% RH, Month 1
[6] = 25° C. ± 2° C./60% ±5% RH, Month 2
[7] = 25° C. ± 2° C./60% ±5% RH, Month 3
[8] = 25° C. ± 2° C./60% ±5% RH, Month 6
[9] = 30° C. ± 2° C./65% ±5% RH (Real Time), Month 1
[10] = 30° C. ± 2° C./65% ±5% RH (Real Time), Month 2
[11] = 30° C. ± 2° C./65% ±5% RH (Real Time), Month 3
[12] = 30° C. ± 2° C./65% ±5% RH (Real Time), Month 6
[13] = 40° C. ± 2° C./75% ±5% RH, Month 1
[14] = 40° C. ± 2° C./75% ±5% RH, Month 2
[15] = 40° C. ± 2° C./75% ±5% RH, Month 3
[16] = 40° C. ± 2° C./75% ±5% RH, Month 6

## C#Cc1cccc(Nc2ncnc3cc(OCCOC)c(OCCOC)cc23)c1.Cl [Erlotinib hydrochloride, 4-(3-Ethynylphenylamino)-6,7-bis(2-methoxyethoxy)-quinazoline]
[1]
  DSC: Complies
  IR: Complies
  PXRD: Complies
[2]
  DSC: Complies
  IR: Complies
  PXRD: Complies
[3]
  DSC: Complies
  IR: Complies
  PXRD: Complies
[4]
  DSC: Complies
  IR: Complies
  PXRD: Complies
[5]
  DSC: Complies
  IR: Complies
  PXRD: Complies
[6]
  DSC: Complies
  IR: Complies
  PXRD: Complies
[7]
  DSC: Complies
  IR: Complies
  PXRD: Complies
[8]
  DSC: Complies
  IR: Complies
  PXRD: Complies
[9]
  DSC: Complies
  IR: Complies
  PXRD: Complies
[10]
  DSC: Complies
  IR: Complies
  PXRD: Complies
[11]
  DSC: Complies
  IR: Complies
  PXRD: Complies
[12]
  DSC: Complies
  IR: Complies
  PXRD: Complies
[13]
  DSC: Complies
  IR: Complies
  PXRD: Complies
[14]
  DSC: Complies
  IR: Complies
  PXRD: Complies
[15]
  DSC: Complies
  IR: Complies
  PXRD: Complies
[16]
  DSC: Complies
  IR: Complies
  PXRD: Complies
Both stability studies, all storage conditions
  retention of polymorphic and chemical identity on storage: retained the same polymorphic and chemical identity at least up to six months
